Measured values as given in paper PMC9181852, “In Vivo and In Vitro Biological Evaluation and Molecular Docking Studies of Compounds Isolated from Micromeria biflora (Buch. Ham. ex D.Don) Benth” (Molecules, 2022).

How the values were obtained:
Open field sedative test = assay type: in vivo, mice (Balb/c); conditions: 30 min after administration
Protocol: (§1) Healthy mice (Balb/c) with weight ranging from 20 to 22 g and ages 9 to 10 weeks were used in this screening model. The grown animals were provided with standard laboratory conditions such as standard food and water ad libitum. The in vivo biological screening test was performed at the Department of Veterinary Medicine, College of Agriculture and Veterinary Medicine, Qassim University Buraydah, Saudi Arabia, as well as Swabi University, KP, Pakistan, according to published procedures.
The sedative potential of salicylalazine isolated from M. biflora was assessed as per the reported procedure. The animals were divided into different groups, as designated above. The apparatuses used in this screening contained an area of white wood with a 150 cm diameter bordered by stainless steel walls and was separated into 19 squares by black lines. Then, the open field apparatus was positioned inside the light and sound-reduced room. The different groups of animals were administered distilled water, diazepam, and salicylalazine at different doses. Thirty minutes after administration, all groups of animals were permitted to move from the center of the design box. […] Statistical calculations were performed by counting the number of lines crossed by every animal.

MDR2780AD = experiment: Anticancer MTT assay, MDR2780AD; assay type: cell-based; conditions: 24 h
[1] = Inclined plane muscle relaxation model; assay type: in vivo, mice (Balb/c)
Protocol: as §1
An inclined plane screening procedure was adapted to identify the muscle relaxation effects of salicylalazine isolated from M. biflora according to a reported procedure. The inclined plane used in screening contained two plywood boards, and these boards were connected, where one board was at 60 0 from the base while the other one was aligned from the base. Various groups of animals were distributed into several groups; each group comprised six animals (n = 6). Animals in each group were administered water (10 mL/kg), standard drug (diazepam, 1 mg/kg), and salicylalazine at different doses of 2.5, 5, 10, 15, and 20 mg/kg, i.p. After various time intervals, such as 30, 60, and 90 min post-administration, animals were allowed on the higher part of the inclined plane for 30 s to drop or hang.

HepG2 = experiment: Anticancer MTT assay, HepG2; assay type: cell-based; conditions: Homo sapiens, 24 h
Protocol: (§2) The MTT assay was used to assess the cytotoxicity of salicylalazine isolated from M. biflora as per the previously documented method. For the MTT assay, Gibco BRL was combined with 100 µg/mL of penicillin sodium salts, 10% FBS (Gibco), and sodium carbonate (2 mg/mL). The prepared medium was used to keep three human cancer cell lines: human hepatoma (HepG2), human A498, and renal NCI-h226 non-small cell lung). Mouse hepatocytes, including HepG2 and HepG-R, were planted in 96-well plates. The cell lines were preserved with salicylalazine (1.5–100 μM), hatched for 24 h, and then they were tracked using the MTT procedure^14. This method was used for all tested cell lines. The IC50 value of salicylalazine in different cell lines was calculated from the concentration-effect curves. The standard drug used in this experiment was paclitaxel.

A498 = experiment: Anticancer MTT assay, A498; assay type: cell-based; conditions: Homo sapiens, 24 h
Protocol: as §2

[2] = Histamine-induced paw edema; assay type: in vivo, mice
Protocol: as §1
The anti-inflammatory potential of salicylalazine isolated from M. biflora was determined as per our recently published method. The induction of inflammation was completed by administering 0.1 mL histamine (0.5%) to the animal’s sub plantar region. The volume of the paw was recorded 1–5 h after the administration of the inflammatory drug. Then, every group of animals was divided and pretreated orally with salicylalazine (15 and 20 mg/kg) for 1 h before making paw edema. The effect of the drug was related to that of loratadine (standard).

[3] = tested on: LCMK-2 monkey kidney cells; experiment: Cytotoxicity MTT assay, LCMK-2 monkey kidney cells; assay type: cell-based
Protocol: (§3) Salicylalazine isolated from M. biflora was also screened for in vitro cytotoxicity using mouse hepatocytes and LCMK-2 monkey kidney cells. According to the MTT assay, salicylalazine was incubated for 24 h and the viability of the cell was identified. In this screening test, the cells were kept in RPMI 1640 medium as per the reported method. The medium used in this experiment consisted of streptomycin sulfate, NaHCO3 solution, and penicillin sodium salt, and FBS in proper proportion. The initial seeding of 8.6 × 10^3 mice hepatocytes and 7.1 × 10^3 LCMK-2 cells was indicated in 96 well plates. The cells were preserved with salicylalazine at different concentrations, and vehicle (0.2% DMSO), and hatching was performed for […] by MTT following our previously reported method.

[4] = Traction muscle relaxation model; assay type: in vivo, mice (Balb/c)
Protocol: as §1
A traction screening model was adapted to identify the relaxation of muscle for salicylalazine isolated from M. biflora according to the standard method. The traction model was considered by using metallic wires covered with rubber, and then the wires were linked with each other using a stand around 60 cm upstairs of the lab bench. The animals were distributed into different groups, with each group comprising six animals (n = 6). The various groups of animals were administered water, diazepam, and salicylalazine at different doses. After administration, all groups of animals were subjected to traction screening after 30, 60, and 90 min. […] Traction testing was repeatedly performed to calculate the muscle relaxant ability of salicylalazine as per the reported method.

mouse hepatocytes = experiment: Cytotoxicity MTT assay, mouse hepatocytes; assay type: cell-based
Protocol: as §3

In the case of `Oc1ccccc1/C=N/N=C/c1ccccc1O` [Salicylalazine, salicylalazine], the “No of Lines Crossed” value (Open field sedative test; dose 2.5 mg/kg) is reported as 78.54 ± 0.98, the “No of Lines Crossed” value (Open field sedative test; dose 5 mg/kg) is reported as 69.98 ± 1.22 and the “No of Lines Crossed” value (Open field sedative test; dose 10 mg/kg) is reported as 60.90 ± 1.00. For the same molecule, the “No of Lines Crossed” value (Open field sedative test; dose 15 mg/kg) was 51.09 ± 0.97, the “No of Lines Crossed” value (Open field sedative test; dose 20 mg/kg) was 40.98 ± 0.80 and the IC50 (MDR2780AD) was 0.85 ± 0.09 µM. For the same molecule, the “Inclined Plane Test (%)” value ([1]; dose 2.5 mg/kg i.p., 30 min) was 20.11 ± 1.45%, the “Inclined Plane Test (%)” value ([1]; dose 2.5 mg/kg i.p., 60 min) was 26.23 ± 1.66% and the “Inclined Plane Test (%)” value ([1]; dose 2.5 mg/kg i.p., 90 min) was 27.45 ± 1.23%. For the same molecule, the “Inclined Plane Test (%)” value ([1]; dose 5 mg/kg i.p., 30 min) was 27.34 ± 1.66%, the “Inclined Plane Test (%)” value ([1]; dose 5 mg/kg i.p., 60 min) was 33.09 ± 1.60% and the “Inclined Plane Test (%)” value ([1]; dose 5 mg/kg i.p., 90 min) was 34.09 ± 1.30%. The “Inclined Plane Test (%)” value ([1]; dose 10 mg/kg i.p., 30 min) was 33.98 ± 1.40%, the “Inclined Plane Test (%)” value ([1]; dose 10 mg/kg i.p., 60 min) was 38.08 ± 1.55% and the “Inclined Plane Test (%)” value ([1]; dose 10 mg/kg i.p., 90 min) was 39.43 ± 1.28%. For the same molecule, the “Inclined Plane Test (%)” value ([1]; dose 15 mg/kg i.p., 30 min) was 44.53 ± 1.43%, the “Inclined Plane Test (%)” value ([1]; dose 15 mg/kg i.p., 60 min) was 50.94 ± 1.50% and the “Inclined Plane Test (%)” value ([1]; dose 15 mg/kg i.p., 90 min) was 51.52 ± 1.20%. The “Inclined Plane Test (%)” value ([1]; dose 20 mg/kg i.p., 30 min) was 52.09 ± 1.30%, the “Inclined Plane Test (%)” value ([1]; dose 20 mg/kg i.p., 60 min) was 59.34 ± 1.45% and the “Inclined Plane Test (%)” value ([1]; dose 20 mg/kg i.p., 90 min) was 60.88 ± 1.19%. The IC50 (HepG2) was 20.8 ± 0.38 µM, the IC50 (A498) was 115.5 ± 0.42 µM and the “Effect on histamine-induced paw edema” value ([2]; 15 mg/kg, 1 h) was 78.45%. For the same molecule, the “Effect on histamine-induced paw edema” value ([2]; 15 mg/kg, 2 h) was 74.33%, the “Effect on histamine-induced paw edema” value ([2]; 15 mg/kg, 3 h) was 58.09% and the “Effect on histamine-induced paw edema” value ([2]; 20 mg/kg, 1 h) was 90.55%. The “Effect on histamine-induced paw edema” value ([2]; 20 mg/kg, 2 h) was 93.99%, the “Effect on histamine-induced paw edema” value ([2]; 20 mg/kg, 3 h) was 86.11% and the “In vitro cytotoxicity (MTT)” value [3] was “did not exhibit any considerable cytotoxicity”. For the same molecule, the “Traction Test (%)” value ([4]; dose 2.5 mg/kg, 30 min) was 21.23 ± 1.55%, the “Traction Test (%)” value ([4]; dose 2.5 mg/kg, 60 min) was 27.78 ± 2.10% and the “Traction Test (%)” value ([4]; dose 2.5 mg/kg, 90 min) was 28.65 ± 1.02%. For the same molecule, the “Traction Test (%)” value ([4]; dose 5 mg/kg, 30 min) was 28.12 ± 1.60%, the “Traction Test (%)” value ([4]; dose 5 mg/kg, 60 min) was 34.56 ± 2.07% and the “Traction Test (%)” value ([4]; dose 5 mg/kg, 90 min) was 35.34 ± 2.00%. For the same molecule, the “Traction Test (%)” value ([4]; dose 10 mg/kg, 30 min) was 34.99 ± 1.70%, the “Traction Test (%)” value ([4]; dose 10 mg/kg, 60 min) was 39.45 ± 2.12% and the “Traction Test (%)” value ([4]; dose 10 mg/kg, 90 min) was 40.66 ± 1.88%. For the same molecule, the “Traction Test (%)” value ([4]; dose 15 mg/kg, 30 min) was 45.78 ± 1.88%, the “Traction Test (%)” value ([4]; dose 15 mg/kg, 60 min) was 52.98 ± 2.15% and the “Traction Test (%)” value ([4]; dose 15 mg/kg, 90 min) was 52.32 ± 2.04%. The “Traction Test (%)” value ([4]; dose 20 mg/kg, 30 min) was 53.72 ± 1.89%, the “Traction Test (%)” value ([4]; dose 20 mg/kg, 60 min) was 60.56 ± 2.13% and the “Traction Test (%)” value ([4]; dose 20 mg/kg, 90 min) was 61.32 ± 2.06%. For the same molecule, the “In vitro cytotoxicity (MTT)” value (mouse hepatocytes) was “did not exhibit any considerable cytotoxicity”.
